These results are taken from patent publication US8273748B2, “Amino alcohol derivative and immunosuppresive agent having same as an active ingredient” (Kyorin Pharmaceutical Co., Ltd., priority 2006, dated 2012).

Holding throughout (format): in vivo
The test system of data set [1] is white blood cells in mouse peripheral blood. Briefly: Activity on total number of white blood cells in mouse peripheral blood. Conditions: BALB/c mice, blood collected 6 hours after administration. The method, then: The test compounds were dissolved or suspended in DMSO, and then a physiological saline solution was added to make dosing solutions (DMSO final concentration 1%). If the dosing solutions were not in a dissolved or a uniform suspended state, Tween 80 was added so that the final concentration thereof was 0.01 to 0.1%. The resultant solutions were then sonicated to form a fine suspension. These test compound solutions were intraperitoneally administered in respective amounts of 0.1 mL or 0.2 mL per 10 g of body weight to BALB/cCrSlc male mice (8 to 14 weeks old, Japan SLC). For the control group, only a solvent having the same composition as that used in the preparation of the test compounds was administered in the same manner. Six hours after administration of the test compound solutions, blood was collected from the postcava under ether anesthesia (10 μL of 10% EDTA was added as an anticoagulant). Measurement of the total number of white blood cells was carried out using the automated blood cell counting apparatus Sysmex F-820 (Sysmex). Here, compounds having an inhibition ratio of 60% or more were marked as “+++”, compounds having an inhibition ratio of less than 60% but more than or equal to 50% were marked as “++”, and compounds having an inhibition ratio of less than 50% but more than or equal to 40% were marked as “+”. Furthermore, the inhibition ratios are the results from a dose of 0.3 mg/kg (“[ ]” are the results from 3 mg/kg).

Data set [2] concerns mouse host-versus-graft rejection reaction. Briefly: Inhibition activity on mouse host-versus-graft rejection reaction (popliteal lymph node weight). The following applies: ip, inhibition of popliteal lymph node weight increase, C3H/HeN mice, intraperitoneal once per day, 4 times. As for the experimental part:
Experiment example 2 was carried out by referring to the methods described in Transplantation, Vol. 55, No. 3, pp. 578 to 591, 1993. The spleens from BALB/c male mice which were6 to 23 weeks old (Japan SLC) were collected. The spleens were extracted in RPMI-1640 medium (Sigma), and then turned into a spleen cell suspension by grinding them with 2 glass slides and then passing the ground matter through a strainer (70 microns, Falcon). The spleen cell suspensions were centrifuged, and the supernatants were removed. Then, an ammonium chloride-tris isotonic buffer solution was added, and the red blood cells were hemolyzed. After centrifuging and washing 3 times with RPMI-1640 medium, the cells were suspended in RPMI-1640 medium. Mitomycin C (Kyowa Hakko) was added thereto so that the final concentration was 25 μg/mL, and the cells were incubated for 30 minutes at 37° C. under 5% CO2. After centrifuging and washing 3 times with RPMI-1640 medium, the cells were suspended in RPMI-1640 medium so that the concentration was 2.5×10^8 cells/mL. These cells were used as a stimulator cell suspension. 20 μL (5×10^6 cells/mouse) of the stimulator cell suspension was injected subcutaneously into the right hind-foodpad of C3H/HeN male mice which were6 to 11 weeks old (Clea Japan) using a 27G needle and a microsyringe (Hamilton). For the normal control group, RPMI-1640 medium only was injected. After 4 days, the right popliteal lymph nodes were extracted, and their weight was measured using Mettler AT201 electronic scales (Mettler Toledo). From the day of the stimulator cell suspensions being injected to 3 days thereafter, the test compounds were intraperitoneally administered on consecutive days once per day, for a total of 4 times. For the control group, only a solvent having the same composition as that used in the preparation of the test compounds was administered in the same manner. As the solvent, basically a physiological saline containing 0.5% DMSO was used (suitably adjusted according to the solubility of the compound). The inhibition ratio was calculated using the following equation. [formula]

A short description of data set [3]: Effect on rat lung weight. Conditions: Wistar rats, lungs extracted 6 hours later. The method, then:
Crlj:Wistar rats (male) 5 to 8 weeks old were used in the experiment. An aqueous solution of the test compounds was respectively orally administered in an amount of 0.5 mL per 100 g of rat body weight. The lungs were extracted 6 hours later, and the lung weight was measured.

The subject of data set [4] is allogenic skin graft for rats. Briefly: Rat skin graft model (allogenic skin graft survival). The following applies: for MST: oral administration once a day. As for the experimental part:
Using a rat skin graft model, activity on the rejection reaction was investigated.
Skin from the abdomen of a LEW/CrlCrlj rat serving as the donor (male, 5 weeks old, Japan Charles River) was peeled away, and the panniculus carnosus muscule layer under the skin was removed. Then, a 1.8 cm×1.8 cm skin specimen (graft) was prepared. Next, a F344/DuCrlCrlj rat serving as the recipient (male, 5 weeks old, Japan Charles River) was anesthetized by intraperitoneal administration of 40 mg/kg of sodium pentobarbital (nembutal injection, Dainippon Sumitomo Pharma). The hair of the back of the rat was shorn off by electric clippers, and then the remaining hair was further shaved off using a razor. Then, a 1.8 cm×1.8 cm mark was made on the back of the rat, and a shallow cut was made along the mark with a scalpel. Next, the skin was peeled away along this cut by tweezers to produce a graft bed. Several drops of sterile physiological saline solution (Otsuka normal saline, Otsuka Pharmaceutical) were dropped onto the graft bed, and then wiped away with gauze. Several drops of penicillin (crystalline penicillin GpotassiumMeiji, Meiji Seika) were then dropped thereon. Next, the graft was placed on the graft bed. After absorbing excess moisture with sterile gauze, a first-aid bandaid was stuck over the graft. Furthermore, an adhesive bandage was wrapped around the trunk of the rat. On the third day after the operation, a new adhesive bandage was wrapped thereover. On the fifth day after the operation, the bandaid and the bandages were cut open with scissors and removed. Observation of the graft was carried out on consecutive days from when the bandaid was removed (from the fifth day). A determination of graft rejection was made when 90% or more of the graft had died and tuned brown. The number of days from grafting until rejection was confirmed was taken as the survival period. The mean value of the survival period for each group was calculated as the mean survival time (MST). Investigation was carried out with 5 animals per group. All of the rats were housed in individual cages. The test compounds were dissolved in ultra-pure water, and were orally administered once a day, on consecutive days, from the graft day. For the control group, ultra-pure water was administered in the same manner.

The mark [5] stands for this setting: dose 3 mg/kg (values in [ ]) intraperitoneal.

Take `C[C@](N)(CO)CCc1ccc(Oc2cccc(C(F)(F)F)c2)cc1Cl.Cl` [Example 28, (R)-2-amino-4-[2-chloro-4-(3-trifluoromethylphenoxy)phenyl]-2-methylbutan-1-ol hydrochloride]: the “Inhibition Ratio” value in data set [1] (dose 0.3 mg/kg intraperitoneal) is given as “++ (inhibition ratio of less than 60% but more than or equal to 50%)”. Besides, in data set [2], the ED50 fell in the range of 1 to 10 mg/kg.
The corresponding values for `C[C@](N)(CO)CCc1ccc(Sc2cccc(C(F)(F)F)c2)cc1Cl.Cl` [Example 29, (R)-2-amino-4-[2-chloro-4-(3-trifluoromethylphenylthio)phenyl]-2-methylbutan-1-ol hydrochloride] are “+++ (inhibition ratio of 60% or more)” and 0.1 to 1 mg/kg.
Regarding `C[C@](N)(CO)CCCc1ccc(Oc2cccc(C(F)(F)F)c2)cc1Cl.Cl` [Example 26, (R)-2-amino-5-[2-chloro-4-(3-trifluoromethylphenoxy)phenyl]-2-methylpentan-1-ol hydrochloride], the “Inhibition Ratio” value in data set [1] (setting [5]) was “[+] (inhibition ratio of less than 50% but more than or equal to 40%)”. The compound also had an ED50 in data set [2] of 0.1 to 1 mg/kg. Moreover, the “Effect on lung weight” value in data set [3] (up to a dose of 30 mg/kg oral) was “no effects whatsoever on lung weight”.
For `CCc1cccc(Sc2ccc(CCC[C@@](C)(N)CO)c(Cl)c2)c1.Cl` [Example 32, (R)-2-amino-5-[2-chloro-4-(3-ethylphenylthio)phenyl]-2-methylpentan-1-ol hydrochloride], in data set [2], the ED50 fell in the range of 0.1 to 1 mg/kg.
As for `C[C@](N)(CO)CCCc1ccc(Sc2cccc(C(F)(F)F)c2)cc1Cl.Cl` [Example 27, (R)-2-amino-5-[2-chloro-4-(3-trifluoromethylphenylthio)phenyl]-2-methylpentan-1-ol hydrochloride], the “Inhibition Ratio” value in data set [1] (dose 0.3 mg/kg intraperitoneal) was “+ (inhibition ratio of less than 50% but more than or equal to 40%)”. In addition, in data set [2], the ED50 is less than 0.1 mg/kg. Further, the MST in data set [4] (3 mg/kg) is reported as 11.8 days; in data set [4] (10 mg/kg) it was 14 days; in data set [4] (30 mg/kg) it was 20.4< days. Further, the “Survival period extension effect of the graft” value in data set [4] (individual administration, oral) is “survival period extension effect of the graft was found”. For the same compound, the “Effect on lung weight” value in data set [3] (up to a dose of 100 mg/kg oral) is recorded as “no effects whatsoever on lung weight”.
For the compound `C[C@](N)(CO)CCCc1ccc(Sc2cccc(C(F)(F)F)c2)cc1F.Cl` [Example 35, (R)-2-amino-5-[2-fluoro-4-(3-trifluoromethylphenylthio)phenyl]-2-methylpentan-1-ol hydrochloride], the ED50 in data set [2] lay within 0.1 to 1 mg/kg.
Turning to `CCC[C@](N)(CO)CCCc1ccc(Sc2cccc(C(F)(F)F)c2)cc1Cl.Cl` [Example 36, (R)-2-amino-5-[2-chloro-4-(3-trifluoromethylphenylthio)phenyl]-2-propylpentan-1-ol hydrochloride], the “Inhibition Ratio” value in data set [1] (setting [5]) was “[++] (inhibition ratio of less than 60% but more than or equal to 50%)”. Moreover, in data set [2], the ED50 lay in the range of 0.1 to 1 mg/kg.

A word on the ED50: it is the midpoint of the dose-response relation.
